In brackets after ≈: the same amount, converted by molar mass. Where two headings read alike, the source gives them in different places.
System: A. baumannii
Assay: MIC, broth microdilution in CAMHB supplemented with human serum, read at 100% growth inhibition
Type: cell-based, Acinetobacter baumannii
Method: MIC determinations were performed using the broth microdilution method and in line with CLSI guidelines M07 and M100 (refs. [37],[38]). Bacterial inocula were prepared by diluting a 0.5 McFarland suspension in CAMHB or lysogeny broth (LB) specifically for A. baylyi isolates. […] MIC values of all of the tested antibiotics were read as the lowest compound concentration inhibiting bacterial growth by naked eye or beyond which the OD600 ceased to decrease.

CN1C(=O)[C@H](CCCCN)NC(=O)[C@H](CCCN)NCc2cccnc2Sc2cccc(-c3ccc(C(=O)O)cc3)c2CNC(=O)[C@@H]1Cc1c[nH]c2ccccc12 [zosurabalpin]
MIC range (129 clinical isolates): ≤0.016 to 4 µg/mL
MIC (ACC01073, CAMHB + 20% HS): 2 µg/mL
MIC (Acinetobacter baumannii, ACC00445, CAMHB + 20% HS, read-out: MIC): 0.25 µg/mL
MIC (Acinetobacter baumannii, ACC00535, CAMHB + 20% HS, read-out: MIC): 0.12 µg/mL
MIC (Acinetobacter baumannii, ACC01073, CAMHB + 20% HS, read-out: MIC): 2 µg/mL
MIC (Acinetobacter baumannii, ACC01077, CAMHB + 20% HS, read-out: MIC): 0.25 µg/mL
MIC (Acinetobacter baumannii, ACC01085 / AR0307, CAMHB + 20% HS, read-out: MIC): 0.5 µg/mL
MIC (Acinetobacter baumannii, ATCC17978, ATCC 17978, CAMHB + 20% HS, read-out: MIC): 0.12 µg/mL
MIC (Acinetobacter baumannii, ATCC19606, ATCC 19606, CAMHB + 20% HS, read-out: MIC): 0.5 µg/mL
MIC (Acinetobacter baumannii, ATCCBAA747, ATCC BAA-747, CAMHB + 20% HS, read-out: MIC): ≤ 0.06 µg/mL
MIC (Acinetobacter baumannii, ROB08701, 129-isolate panel, 20% HS, read-out: MIC): 0.06 µg/mL (≈ 0.0759 µM)
MIC (Acinetobacter baumannii, ROB08701, CAMHB + 20% HS, read-out: MIC): ≤ 0.06 µg/mL
MIC (Acinetobacter baumannii, ROB08702, 129-isolate panel, 20% HS, read-out: MIC): 0.125 µg/mL (≈ 0.158 µM)
MIC (Acinetobacter baumannii, ROB08702, CAMHB + 20% HS, read-out: MIC): 0.12 µg/mL
MIC (Acinetobacter baumannii, ROB08703, 129-isolate panel, 20% HS, read-out: MIC): 0.5 µg/mL (≈ 0.632 µM)
MIC (Acinetobacter baumannii, ROB08703, CAMHB + 20% HS, read-out: MIC): 2 µg/mL
MIC (Acinetobacter baumannii, ROB08704, 129-isolate panel, 20% HS, read-out: MIC): 0.25 µg/mL (≈ 0.316 µM)
MIC (Acinetobacter baumannii, ROB08704, CAMHB + 20% HS, read-out: MIC): 0.25 µg/mL
MIC (Acinetobacter baumannii, ROB08705, 129-isolate panel, 20% HS, read-out: MIC): 0.06 µg/mL (≈ 0.0759 µM)
MIC (Acinetobacter baumannii, ROB08705, CAMHB + 20% HS, read-out: MIC): 0.25 µg/mL
MIC (Acinetobacter baumannii, ROB08706, 129-isolate panel, 20% HS, read-out: MIC): 0.125 µg/mL (≈ 0.158 µM)
MIC (Acinetobacter baumannii, ROB08706, CAMHB + 20% HS, read-out: MIC): 1 µg/mL
MIC (Acinetobacter baumannii, ROB08707, 129-isolate panel, 20% HS, read-out: MIC): 0.03 µg/mL (≈ 0.0379 µM)
MIC (Acinetobacter baumannii, ROB08707, CAMHB + 20% HS, read-out: MIC): ≤ 0.06 µg/mL
MIC (Acinetobacter baumannii, ROB08708, 129-isolate panel, 20% HS, read-out: MIC): 0.125 µg/mL (≈ 0.158 µM)
MIC (Acinetobacter baumannii, ROB08708, CAMHB + 20% HS, read-out: MIC): 0.25 µg/mL
MIC (Acinetobacter baumannii, ROB08709, 129-isolate panel, 20% HS, read-out: MIC): 0.03 µg/mL (≈ 0.0379 µM)
MIC (Acinetobacter baumannii, ROB08709, CAMHB + 20% HS, read-out: MIC): ≤ 0.06 µg/mL
MIC (Acinetobacter baumannii, ROB08710, 129-isolate panel, 20% HS, read-out: MIC): 0.125 µg/mL (≈ 0.158 µM)
MIC (Acinetobacter baumannii, ROB08710, CAMHB + 20% HS, read-out: MIC): 0.12 µg/mL
MIC (Acinetobacter baumannii, ROB08961 (LpxM NS), 20% HS, read-out: MIC): 4 µg/mL (≈ 5.06 µM)
MIC (Acinetobacter baumannii, ROB08979 (LptF R322L), 20% HS, read-out: MIC): 8 µg/mL (≈ 10.1 µM)
MIC (Acinetobacter baumannii, ROB08982 (lpxM ISAba1), 20% HS, read-out: MIC): 4 µg/mL (≈ 5.06 µM)
MIC (Acinetobacter baumannii, ROB08985 (LpxM NS), 20% HS, read-out: MIC): 4 µg/mL (≈ 5.06 µM)
MIC (Acinetobacter baumannii, ROB08997 (LptF I323K), 20% HS, read-out: MIC): 16 µg/mL (≈ 20.2 µM)
MIC (Acinetobacter baumannii, ROB08998 (AdeR A91V), 20% HS, read-out: MIC): 8 µg/mL (≈ 10.1 µM)
MIC (Acinetobacter baumannii, ROB09000 (lpxM ISAba1), 20% HS, read-out: MIC): 8 µg/mL (≈ 10.1 µM)
MIC (Acinetobacter baumannii, ROB21530 (LptF W271S), 20% HS, read-out: MIC): 16 µg/mL (≈ 20.2 µM)
MIC (Acinetobacter baumannii, ROB21531 (LptG G40D), 20% HS, read-out: MIC): 8 µg/mL (≈ 10.1 µM)
MIC (Acinetobacter baumannii, ROB21532 (LptF R322C), 20% HS, read-out: MIC): 64 µg/mL (≈ 80.9 µM)
MIC (Acinetobacter baumannii, ROB21533 (LptF I317L), 20% HS, read-out: MIC): 64 µg/mL (≈ 80.9 µM)
MIC (Acinetobacter baumannii, ROB23370 (adeS ISAba1), 20% HS, read-out: MIC): 4 µg/mL (≈ 5.06 µM)
MIC (Acinetobacter baumannii, ROB23371 (AdeS R152K), 20% HS, read-out: MIC): 4 µg/mL (≈ 5.06 µM)
MIC (Acinetobacter baumannii, ROB23373 (AdeS G318S), 20% HS, read-out: MIC): 2 µg/mL (≈ 2.53 µM)
MIC (Acinetobacter baumannii, ROB23377 (AdeS R108S), 20% HS, read-out: MIC): 1 µg/mL (≈ 1.26 µM)
MIC (Acinetobacter baumannii, ROB23380 (adeS ISAba1), 20% HS, read-out: MIC): 8 µg/mL (≈ 10.1 µM)
MIC (Acinetobacter baumannii, isolate 1061067, 20% HS, read-out: MIC): 0.25 µg/mL (≈ 0.316 µM)
MIC (Acinetobacter baumannii, isolate 1061145, 20% HS, read-out: MIC): 0.125 µg/mL (≈ 0.158 µM)
MIC (Acinetobacter baumannii, isolate 1065279, 20% HS, read-out: MIC): 0.25 µg/mL (≈ 0.316 µM)
MIC (Acinetobacter baumannii, isolate 1065391, 20% HS, read-out: MIC): 0.25 µg/mL (≈ 0.316 µM)
MIC (Acinetobacter baumannii, isolate 1065549, 20% HS, read-out: MIC): 0.06 µg/mL (≈ 0.0759 µM)
MIC (Acinetobacter baumannii, isolate 1069554, 20% HS, read-out: MIC): 0.06 µg/mL (≈ 0.0759 µM)
MIC (Acinetobacter baumannii, isolate 1072184, 20% HS, read-out: MIC): 0.25 µg/mL (≈ 0.316 µM)
MIC (Acinetobacter baumannii, isolate 1089062, 20% HS, read-out: MIC): 0.125 µg/mL (≈ 0.158 µM)
MIC (Acinetobacter baumannii, isolate 1089975, 20% HS, read-out: MIC): 0.125 µg/mL (≈ 0.158 µM)
